Experimental data reported in US10684290B2, “LKB1 related diagnostics and treatments of cancer” (Dignity Health, priority 2014, dated 2020).

Legend:
[1] = test system: H838-KDLKB1 and H838-LKB1 cells; assay: Flow cytometry of ROS levels (CellROX staining); type: cell-based, human; settings: CellROX FACS, 12 h; 2DG 10 mM, Tm 1.25 μg/ml, BFA 30 ng/ml; baseline difference 1.4-fold
Description: To analyze levels of reactive oxygen species (ROS), 1×10^6 H838-KDLKB1 and H838-LKB1 cells were plated and treated with the indicated drugs. Cells were then stained with 0.5 1M CellRox™ for 30 min at 37° C., collected by trypsinization and washed with PBS. Following fixation with 2% Paraformaldehyde/PBS for 20 min, cells were brought to a final volume of 500 ll in PBS. CellRox™ staining of ROS was assessed using the Accuri C6 Flow Cytometer (BD Biosciences, San Jose, Calif., USA) with the threshold set at 80,000. A total of 30,000 events were collected per sample and ROS staining intensity determined using FCS Express 4 Flow Cytometer software. Background events were gated out using unstained control. Histogram plots were overlaid and histogram subtraction was performed by subtracting the integral of the stained control from the treated sample.

[2] = test system: H838-KDLKB1 and H838-LKB1 cells; assay: ATP measurement/cell viability (CellTiter-Glo), H838; type: cell-based, human; settings: 48 h; 2DG 10 mM, Tm 1.25 μg/ml, BFA 30 ng/ml; p<0.005
Description: (§1) 500 H838 or A427 cells stably expressing either LKB1 or KDLKB1 were plated in 96 well plates. The following day, cells were dosed with the indicated treatments for 48 h. Cellular ATP levels were assessed using the CellTiter-Glo Luminescent Cell Viability Assay substrate (Promega) according to manufacturer's instructions. Luminescence was read using the DTX 880 Multimode Detector. Cellular ATP/cell viability was calculated relative to vehicle treated control.

[3] = test system: BiP/GRP78 in KRas/LKB1^wt and KRas/LKB1^null NSCLC tumors; assay: Immunohistochemical staining of BiP in NSCLC tumors of treated mice; type: in vivo; settings: 500 mg/kg twice a day for two days
Description: KRas^G12D/LKB1^lox/lox (KRas/LKB1^null) were generated by selective breeding of Lox-Stop-Lox KRas^G12D mice, purchased from Jackson Laboratories (Bar-Harbor, Me.), with LKB1^lox/lox mice obtained from Mouse Repository at the NCI and were inbred on a FVB background. KRas^G12D/LKB1^wt/wt (KRas/LKB1^wt) mice were generated by backcrossing Lox-Stop-Lox KRas^G12D onto a FVB background. Induction of lung tumors was performed. Briefly, six-week-old KRas/LKB1^null and KRas/LKB1^wt mice were transiently infected with 5×10^6 p.f.u. of Cre adenovirus (University of Iowa adenoviral core) via intranasal infection. At ˜6 weeks (KRas/LKB1^null) or ˜10 weeks (KRas/LKB1^wt) post-infection, mice underwent a baseline MRI scan to determine the baseline tumor burden. Mice with identified disease were randomized for daily treatment with either vehicle (PBS) or 500 mg/kg 2DG for three weeks, at which time mice received a follow-up MRI scan, sacrificed and the presence of disease confirmed by gross assessment and histology. For data generated in FIG. 2, KRas/LKB1^null and KRas/LKB1^wt mice with MRI positive tumors were treated either with 2DG (500 mg/kg) or vehicle (PBS) twice a day for two days before sacrifice and necropsy of tumor tissue. […]

[4] = Chronic dosing tolerability in vivo
[5] = test system: LKB1 expressing and LKB1 null LA/NSCLC cell lines; assay: Immunoblot of pAMPK and cleaved PARP in LKB1 expressing and LKB1 null cell lines; type: cell-based, human; settings: 20 mM
Description: Cells were incubated on ice for 30 minutes with a lysis buffer containing 10 mM Tris-HCL, 150 mM NaCl, 0.1% SDS and 1% IGEPAL (Sigma). Immediately before use, a protease inhibitor cocktail (Sigma) and two phosphatase cocktails I and II (Sigma) were added to the lysis buffer. Lysates were transferred to tubes and insoluble material was pelleted by centrifugation. Nuclear protein fractions were isolated using a NE-PER protein extraction kit (ThermoFisher) according to manufacturer's instructions. Protein concentration was determined using the Bio-Rad DC protein kit. For immunoblotting, 50-100 ug of total protein lysates was separated by SDS-PAGE and transferred to nitrocellulose. Blots were blocked in 5% milk/Tris buffered saline/0.1% TWEEN® 20 (polyoxyethylenesorbitan monolaurate) (TBST) and primary antibodies were diluted in 5% Bovine Serum Albumin (Sigma)/TBST and incubated overnight at 4° C. Blots were developed with ECL plus (GE) and visualized on a Kodak Image station.
Cells were washed once with ice-cold PBS and incubated on ice for 30 min with a lysis buffer containing 10 mM Tris-HCl, 150 mM NaCl, 0.1% SDS and 1% IGEPAL (Sigma) to which a protease inhibitor cocktail (Sigma) and two phosphatase cocktails I and II (Sigma) were added immediately before use. Lysates were transferred to tubes and insoluble material was pelleted by centrifugation. […]

[6] = test system: H838-KDLKB1 cells; assay: Clonogenic survival of H838-LKB1 and H838-KDLKB1 cells; type: cell-based, human; settings: 24 h; 2DG 10 mM, Tm 1.25 μg/ml, BFA 30 ng/ml
Description: Clonogenic survival assay were performed in 6 well dishes. Briefly, 200 of indicated cells were plated per well and allowed to attach overnight. Were indicated cells were pre-treated with 125 ng/ml of cyclohexamide (CHX) for one hour. Indicated drugs were diluted fresh into media and cells were treated for 24 h, at which time the drug containing media was removed and replaced with fresh media. After 14 days, cells were fixed in 10% Methanol/10% Acetic Acid and stained with 0.5% crystal violet. After washing in ddH2O, plates were allowed to dry and colonies of 50 cells or more were counted. The surviving fraction was calculated according to methods described by Franken et al. [Clonogenic assay of cells in vitro, NAT. PROT. 1 (5) (2006) 2315-2319].

[7] = test system: A427-KDLKB1 and A427-LKB1 cells; assay: ATP measurement/cell viability (CellTiter-Glo), A427; type: cell-based, human; settings: 48 h; 2DG 10 mM, Tm 1.25 μg/ml, BFA 30 ng/ml; p<0.005
Description: as §1

Structure (SMILES): O=CC[C@@H](O)[C@H](O)[C@H](O)CO [2DG, 2-deoxy-D-glucose]
- ROS levels in H838-KDLKB1, increase in intensity over H838-LKB1 [1]: 2 fold
- Cellular ATP in H838-KDLKB1 compared to H838 re-expressing LKB1 [2]: reduced ATP
- BiP protein levels in NSCLC tumor cells of KRas/LKB1^wt mice (IHC) [3]: significant increase in BiP protein levels
- Tolerability of chronic dosing [4]: poorly tolerated
- Phosphorylation of AMPK in LKB1 expressing H2009 cells (not in LKB1-deficient H23 cells) [5]: resulted in phosphorylation of AMPK
- Cleavage of PARP (apoptosis) in LKB1 null LA cells (H2126, H838, H1395) ([5]; 12 and 18 hours): increased cleavage of poly(ADP-ribose) polymerase (PARP)
- Clonogenic cell survival of H838-KDLKB1 cells [6]: reduced cell survival
- Cellular ATP in A427-KDLKB1 compared to A427 re-expressing LKB1 [7]: reduced ATP
